Where two headings read alike, the source gives them in different places. Starred links: 1 amine or outer side, 2 acyl side, 3 side chain; linkers in the order of their positions; H or OH if unused. Positions of bridges follow the written chain, without caps; N, C: chain ends. Non-standard residues stand in square brackets, D forms with d. Residues, ends and D or L forms follow the SMILES beside them. Chains are numbered I, II in the order given. *: point of attachment. X5 = O=C(O)CCCCCCCCCCCCC(=O)N[C@@H](CCC(=O)N[C@@H](CCCCN*)C(=O)O)C(=O)O; X4 = O=C(O)CCCCCCCCCCC(=O)N[C@@H](CCC(=O)N[C@@H](CCCCN*)C(=O)O)C(=O)O; Ala(piperidin-4-yl) = O=C([C@H](CC1CCN([*:3])CC1)N[*:1])[*:2]; Phe(4-COOH) = N[C@@H](Cc1ccc(C(=O)O)cc1)C(=O)O; X3 = O=C(O)CN1CCC(N[*:1])(C(=O)[*:2])CC1; Phe(4-F) = N[C@@H](Cc1ccc(F)cc1)C(=O)O; C12 diacid = O=C(O)CCCCCCCCCCC(=O)*; NMeF = CN[C@@H](Cc1ccccc1)C(=O)O; X1 = C[C@@H](Cc1ccc(O)cc1)C(=O)*; NMeE = CN[C@@H](CCC(=O)O)C(=O)O; dNMeE = CN[C@H](CCC(=O)O)C(=O)O; Cha = N[C@@H](CC1CCCCC1)C(=O)O; Cit = NC(=O)NCCC[C@H](N)C(=O)O; dNMeD = CN[C@H](CC(=O)O)C(=O)O; NMeNle = CCCC[C@H](NC)C(=O)O; hCys = N[C@@H](CCS)C(=O)O; X2 = O=C(C[*:1])[*:2]; Aib = CC(C)(N)C(=O)O
Columns and labels:
[1] = tested on: SARS-CoV-2 (JPN/TY/WK-521 strain); type: cell-based; parameters: key: the case where the peptide was found to have anti-SARS-CoV-2 activity when added at 50 nM was designated as “2”; the case where no activity was found upon the addition at 50 nM but the activity was found at 1 μM was designated as “1”; conditions: peptide added at 50 nM or 1 μM
[2] = in vitro; conditions: African green monkey
[3] = tested on: SARS-CoV2 (USA WA1/2020 strain); conditions: 72 h
[4] = tested on: SARS-CoV-2 Wuhan strain
[5] = tested on: SARS-CoV-2 Delta strain

Row | Compound | CC50 at 72 h [2] [nM] | IC50 [3] [nM] | IC50 [4] [nM] | IC50 [5] [nM] | also measured
1 | CCCC[C@H]1C(=O)NC(C)(C)C(=O)N[C@@H](CC2CCCCC2)C(=O)N[C@@H](Cc2ccc(F)cc2)C(=O)N[C@H](CC(=O)O)C(=O)N[C@@H](Cc2ccc(O)cc2)C(=O)N[C@@H](Cc2ccc(O)cc2)C(=O)N[C@@H](Cc2ccc(C(=O)O)cc2)C(=O)N[C@H](CCCNC(=N)N)C(=O)N[C@@H](CC2CCCCC2)C(=O)N[C@H](C(N)=O)CSCC(=O)N(C)[C@@H](CCC(=O)O)C(=O)N1C [Peptide 5555_p003] ({CH2CO}-[NMeE][NMeNle][Aib][Cha][Phe(4-F)][dD]YY[Phe(4-COOH)][dR][Cha]C-NH2; thioether N-12) | > 100000 | 4.5 |  |  | Anti-SARS-CoV-2 activity [1]: 2
2 | CCCC[C@H]1C(=O)NC(C)(C)C(=O)N[C@@H](CC2CCCCC2)C(=O)N[C@@H](Cc2ccc(F)cc2)C(=O)N(C)[C@@H](CCC(=O)O)C(=O)N[C@@H](Cc2ccc(O)cc2)C(=O)N[C@@H](Cc2ccc(O)cc2)C(=O)N[C@@H](Cc2ccc(C(=O)O)cc2)C(=O)N[C@H](CCCNC(=N)N)C(=O)N[C@@H](CC2CCCCC2)C(=O)N[C@H](C(N)=O)CSCC(=O)N(C)[C@@H](CCC(=O)O)C(=O)N1C [Peptide 5555_p005] ({CH2CO}-[NMeE][NMeNle][Aib][Cha][Phe(4-F)][NMeE]YY[Phe(4-COOH)][dR][Cha]C-NH2; thioether N-12) | > 100000 | 5 |  |  | 
3 | CCCC[C@H]1C(=O)NC(C)(C)C(=O)N[C@@H](CC2CCCCC2)C(=O)N[C@@H](Cc2ccc(F)cc2)C(=O)N[C@H](CC(=O)O)C(=O)N[C@@H](Cc2ccc(O)cc2)C(=O)N[C@@H](Cc2ccc(O)cc2)C(=O)N[C@@H](Cc2ccc(C(=O)O)cc2)C(=O)N[C@@H](CC2CCNCC2)C(=O)N[C@@H](CC2CCCCC2)C(=O)N[C@H](C(=O)N[C@H](CCC(=O)O)C(N)=O)CSCC(=O)N(C)[C@@H](CCC(=O)O)C(=O)N1C [Peptide 5555_p026] ({CH2CO}-[NMeE][NMeNle][Aib][Cha][Phe(4-F)][dD]YY[Phe(4-COOH)][Ala(piperidin-4-yl)][Cha]C[dE]-NH2; thioether N-12) |  | 8.1 |  |  | Anti-SARS-CoV-2 activity [1]: 2
4 | CCCC[C@H]1C(=O)NC(C)(C)C(=O)N[C@@H](CC2CCCCC2)C(=O)N[C@@H](Cc2ccc(F)cc2)C(=O)N(C)[C@@H](CCC(=O)O)C(=O)N[C@@H](Cc2ccc(O)cc2)C(=O)N[C@@H](Cc2ccc(O)cc2)C(=O)N[C@@H](Cc2ccc(C(=O)O)cc2)C(=O)N[C@H](CCCNC(=N)N)C(=O)N[C@@H](CC2CCCCC2)C(=O)N[C@H](C(=O)N[C@H](CCC(=O)O)C(N)=O)CSCC(=O)N(C)[C@@H](CCC(=O)O)C(=O)N1C [Peptide 5555_p039] ({CH2CO}-[NMeE][NMeNle][Aib][Cha][Phe(4-F)][NMeE]YY[Phe(4-COOH)][dR][Cha]C[dE]-NH2; thioether N-12) | > 100000 | 7.4 |  |  | 
5 | CN1C(=O)CSC[C@@H](C(=O)N[C@H](CCC(=O)O)C(N)=O)NC(=O)[C@H](CC2CCCCC2)NC(=O)[C@H](CCCCN)NC(=O)[C@H](Cc2ccc(C(=O)O)cc2)NC(=O)[C@H](Cc2ccc(O)cc2)NC(=O)[C@H](Cc2ccc(O)cc2)NC(=O)[C@H](CCC(=O)O)N(C)C(=O)[C@H](Cc2ccc(F)cc2)NC(=O)[C@H](CC2CCCCC2)NC(=O)[C@H](CO)NC(=O)[C@H](Cc2ccccc2)N(C)C(=O)[C@@H]1CCC(=O)O [Peptide 5555_p088] ({CH2CO}-[NMeE][NMeF]S[Cha][Phe(4-F)][NMeE]YY[Phe(4-COOH)]K[Cha]C[dE]-NH2; thioether N-12) | > 100000 | 11.4 |  |  | 
6 | CN1C(=O)CSC[C@@H](C(=O)N[C@H](CCC(=O)O)C(N)=O)NC(=O)[C@H](CC2CCCCC2)NC(=O)[C@H](CCCCN)NC(=O)[C@H](CCCNC(N)=O)NC(=O)[C@H](Cc2ccc(O)cc2)NC(=O)[C@H](Cc2ccc(O)cc2)NC(=O)[C@H](CCC(=O)O)N(C)C(=O)[C@H](Cc2ccc(F)cc2)NC(=O)[C@H](CC2CCCCC2)NC(=O)[C@H](CO)NC(=O)[C@H](Cc2ccccc2)N(C)C(=O)[C@@H]1CCC(=O)O [Peptide 5555_p092] ({CH2CO}-[NMeE][NMeF]S[Cha][Phe(4-F)][NMeE]YY[Cit]K[Cha]C[dE]-NH2; thioether N-12) | > 100000 | 4.1 |  |  | Anti-SARS-CoV-2 activity ([1]; VeroE6/TMPRSS2 cells, JPN/TY/WK-521 strain, 24 hours): 2
7 | CN1C(=O)CSC[C@@H](C(=O)N[C@H](CCC(=O)O)C(=O)O)NC(=O)[C@H](CC2CCCCC2)NC(=O)[C@H](CC2CCNCC2)NC(=O)[C@H](Cc2ccc(C(=O)O)cc2)NC(=O)[C@H](Cc2ccc(O)cc2)NC(=O)[C@H](Cc2ccc(O)cc2)NC(=O)[C@H](CCC(=O)O)N(C)C(=O)[C@H](Cc2ccc(F)cc2)NC(=O)[C@H](CC2CCCCC2)NC(=O)C(C)(C)NC(=O)[C@H](Cc2ccccc2)N(C)C(=O)[C@@H]1CCC(=O)O [Peptide 5555_p119] ({CH2CO}-[NMeE][NMeF][Aib][Cha][Phe(4-F)][NMeE]YY[Phe(4-COOH)][Ala(piperidin-4-yl)][Cha]C[dE]-OH; thioether N-12) | > 100000 | 18.2 |  |  | 
8 | CCCC[C@H]1C(=O)NC(C)(C)C(=O)N[C@@H](CC2CCCCC2)C(=O)N[C@@H](Cc2ccc(F)cc2)C(=O)NC2(CCN(CC(=O)O)CC2)C(=O)N[C@@H](Cc2ccc(O)cc2)C(=O)N[C@@H](Cc2ccc(O)cc2)C(=O)N[C@@H](Cc2ccc(C(=O)O)cc2)C(=O)N[C@@H](CC2CCNCC2)C(=O)N[C@@H](CC2CCCCC2)C(=O)N[C@H](C(=O)N[C@H](CCC(=O)O)C(N)=O)CSCC(=O)N(C)[C@@H](CCC(=O)O)C(=O)N1C [Peptide 5555_p173] ({CH2CO}-[NMeE][NMeNle][Aib][Cha][Phe(4-F)][X3]YY[Phe(4-COOH)][Ala(piperidin-4-yl)][Cha]C[dE]-NH2; thioether N-12) |  |  | 6.8 |  | 
9 | CCCC[C@H]1C(=O)NC(C)(C)C(=O)N[C@@H](CC2CCCCC2)C(=O)N[C@@H](Cc2ccc(F)cc2)C(=O)N(C)[C@H](CCC(=O)O)C(=O)N[C@@H](Cc2ccc(O)cc2)C(=O)N[C@@H](Cc2ccc(O)cc2)C(=O)N[C@@H](Cc2ccc(C(=O)O)cc2)C(=O)N[C@@H](CC2CCNCC2)C(=O)N[C@@H](CC2CCCCC2)C(=O)N[C@H](C(=O)N[C@H](CCC(=O)O)C(N)=O)CSCC(=O)N(C)[C@@H](CCC(=O)O)C(=O)N1C [Peptide 5555_p175] ({CH2CO}-[NMeE][NMeNle][Aib][Cha][Phe(4-F)][dNMeE]YY[Phe(4-COOH)][Ala(piperidin-4-yl)][Cha]C[dE]-NH2; thioether N-12) |  |  | 34.5 |  | 
10 | CCCC[C@H]1C(=O)NC(C)(C)C(=O)N[C@@H](CC2CCCCC2)C(=O)N[C@@H](Cc2ccc(F)cc2)C(=O)N(C)[C@H](CC(=O)O)C(=O)N[C@@H](Cc2ccc(O)cc2)C(=O)N[C@@H](Cc2ccc(O)cc2)C(=O)N[C@@H](Cc2ccc(C(=O)O)cc2)C(=O)N[C@@H](CC2CCNCC2)C(=O)N[C@@H](CC2CCCCC2)C(=O)N[C@H](C(=O)N[C@H](CCC(=O)O)C(N)=O)CSCC(=O)N(C)[C@@H](CCC(=O)O)C(=O)N1C [Peptide 5555_p176] ({CH2CO}-[NMeE][NMeNle][Aib][Cha][Phe(4-F)][dNMeD]YY[Phe(4-COOH)][Ala(piperidin-4-yl)][Cha]C[dE]-NH2; thioether N-12) |  |  | 13.6 | 13.7 | 
11 | CCCC[C@@H](C(=O)NC(C)(C)C(=O)N[C@@H](CC1CCCCC1)C(=O)N[C@@H](Cc1ccc(F)cc1)C(=O)N[C@H](CC(=O)O)C(N)=O)N(C)C(=O)[C@H](CCC(=O)O)N(C)C(=O)CSCC[C@H](NC(=O)[C@H](CC1CCCCC1)NC(=O)[C@@H](CCCCN)NC(=O)[C@H](CCCNC(N)=O)NC(=O)[C@H](Cc1ccc(O)cc1)NC(=O)[C@@H](C)Cc1ccc(O)cc1)C(=O)N[C@H](CCC(=O)O)C(=O)N[C@H](CCCCNC(=O)CCCCCCCCCCC(=O)O)C(N)=O [Peptide 5555_p221] (I: X1-Y[Cit][dK][Cha][hCys][dE][dK](C12 diacid)-NH2 / II: [NMeE][NMeNle][Aib][Cha][Phe(4-F)][dD]-NH2; linker I:5-II:N via X2) |  |  | 17.7 | 18.6 | 
12 | CCCC[C@H]1C(=O)NC(C)(C)C(=O)N[C@@H](CC2CCCCC2)C(=O)N[C@@H](Cc2ccc(F)cc2)C(=O)N[C@H](CC(=O)O)C(=O)N[C@@H](Cc2ccc(O)cc2)C(=O)N[C@@H](Cc2ccc(O)cc2)C(=O)N[C@@H](CCCNC(N)=O)C(=O)N[C@H](CCCCN)C(=O)N[C@@H](CC2CCCCC2)C(=O)N[C@H](C(=O)N[C@H](CCC(=O)O)C(=O)NCCCC[C@H](NC(=O)CC[C@H](NC(=O)CCCCCCCCCCC(=O)O)C(=O)O)C(=O)O)CSCC(=O)N(C)[C@@H](CCC(=O)O)C(=O)N1C [Peptide 5555_p234] ({CH2CO}-[NMeE][NMeNle][Aib][Cha][Phe(4-F)][dD]YY[Cit][dK][Cha]C[dE]-X4; thioether N-12) |  |  |  | 42 | 
13 | CCCC[C@H]1C(=O)NC(C)(C)C(=O)N[C@@H](CC2CCCCC2)C(=O)N[C@@H](Cc2ccc(F)cc2)C(=O)N[C@H](CC(=O)O)C(=O)N[C@@H](Cc2ccc(O)cc2)C(=O)N[C@@H](Cc2ccc(O)cc2)C(=O)N[C@@H](CCCNC(N)=O)C(=O)N[C@H](CCCCN)C(=O)N[C@@H](CC2CCCCC2)C(=O)N[C@H](C(=O)N[C@H](CCC(=O)O)C(=O)NCCCC[C@H](NC(=O)CC[C@H](NC(=O)CCCCCCCCCCCCC(=O)O)C(=O)O)C(=O)O)CSCC(=O)N(C)[C@@H](CCC(=O)O)C(=O)N1C [Peptide 5555_p235] ({CH2CO}-[NMeE][NMeNle][Aib][Cha][Phe(4-F)][dD]YY[Cit][dK][Cha]C[dE]-X5; thioether N-12) |  |  |  | 57 | 

— patent US20240209027A1, “PEPTIDE AND PEPTIDE-CONTAINING COMPOSITION” (PeptiAID Inc.,, priority 2021, published 2024)
